Measurements published in publication PMC10392906 (Advances and Applications in Bioinformatics and Chemistry : …, 2023).

Molecular target: T1, pancreatic porcine α-amylase (Sus scrofa, UniProt P00690)
T1 sequence (P00690 16-511): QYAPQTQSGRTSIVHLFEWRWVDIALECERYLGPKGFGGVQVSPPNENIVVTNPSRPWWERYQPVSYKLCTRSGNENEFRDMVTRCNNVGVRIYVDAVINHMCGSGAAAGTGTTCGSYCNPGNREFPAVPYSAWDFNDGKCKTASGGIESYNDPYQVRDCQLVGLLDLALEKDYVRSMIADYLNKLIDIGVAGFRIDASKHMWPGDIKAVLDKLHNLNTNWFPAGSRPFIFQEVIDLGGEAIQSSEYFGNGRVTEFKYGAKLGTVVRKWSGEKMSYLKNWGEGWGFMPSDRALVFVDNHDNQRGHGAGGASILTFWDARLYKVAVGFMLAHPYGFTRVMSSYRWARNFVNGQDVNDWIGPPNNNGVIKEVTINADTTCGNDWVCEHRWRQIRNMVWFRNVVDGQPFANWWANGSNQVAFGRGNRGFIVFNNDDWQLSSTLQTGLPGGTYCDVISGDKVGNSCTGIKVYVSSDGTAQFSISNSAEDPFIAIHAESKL
Test: α-Amylase inhibitory assay
Format: biochemical
Conditions: for inhibition at 10 µg/mL: read-out: % of Inhibition of α-amylase (Mean ± S.D.), 10 µg/mL

Compound | inhibition at 10 µg/mL | α-amylase inhibitory effect better than acarbose (versus acarbose) | % of Inhibition of α-amylase (Mean ± S.D.) (10 µg/mL)
COc1cc(C=CC(=O)CC(c2ccc(N(C)C)cc2)n2ccnc2)ccc1O (stereo not shown) [Compound 16, 5-(4-(Dimethylamino)phenyl)-1-(4-Hydroxy-3-Methoxyphenyl)-5-(1H-Imidazol-1-yl)pent-1-En-3-One] | 87.15 ± 0.46% | up to 2 fold | –
COc1cc(C=Cc2cc(-c3ccccc3)nc(O)n2)ccc1O [Compound 11, 4-(4-Hydroxy-3-Methoxystyryl)-6-Phenylpyrimidin-2-ol] | 85.17 ± 0.55% | – | –
4-(-2-(3-(4-(Dimethylamino)phenyl)-4,5-Dihydro-1H-Pyrazol-5-yl)vinyl)-2-Methoxyphenol [Compound 8] | – | – | 85.32±0.36%
